Test results reported in patent US11702417B2, “Compounds for improving mRNA splicing” (The General Hospital Corporation, priority 2015, dated 2023).
Like-named read-outs stand apart in the source and are kept apart here.

How the values were obtained:
[1] = system: IKBKAP splicing (exon 20 inclusion) in FD fibroblasts GM04663; assay: Secondary assay: IKBKAP splicing analysis by RT-PCR in FD fibroblasts GM04663; format: cell-based; settings: Homo sapiens, FD fibroblasts GM04663, 24 hours of treatment, read-out: % exon Inclusion Normalized
[2] = system: FD (familial dysautomonia) IKBKAP minigene, exon 20 inclusion, in HEK293T cells; assay: Primary splicing assay (FD IKBKAP minigene, Firefly/Renilla luciferase reporter in HEK293T); format: cell-based, human; settings: for Emax / EC (maximum kinetin efficacy): Homo sapiens, HEK-293T; for EC (maximum kinetin efficacy): HEK293T, read-out: ECk (compound concentration at which the maximum kinetin efficacy (200 μM) is reached)
[3] = Firefly/Renilla ratio, 24 hours of treatment
[4] = max efficacy in Primary Assay, Firefly/Renilla ratio, kinetin and DMSO as positive and negative controls, 24 hours of treatment, read-out: Emax (%)

`Clc1nc(NCc2nccs2)c2cc[nH]c2n1` [(107)] was tested, and the activation at 0.08 µM [1] was 25.6%, the activation at 0.8 µM [1] was 93.2% and the Emax ([2]; max efficacy, Firefly only, footnote c: Renilla interference/Firefly only, read-out: Emax (%) Firefly only) was 184%. For the same compound, the “ECk, Firefly only” value ([2]; Renilla interference/Firefly only (footnote c)) was 4.58 µM⁻¹.

`Clc1nc(NCc2ccco2)c2nc(OC3COC3)[nH]c2n1` [(269)] showed an activation at 0.08 µM [1] of 34.8%, an activation at 0.8 µM [1] of 102% and an EC (maximum kinetin efficacy) [2, 3] of 1.39 µM. The Emax [2, 4] was 119%.

`CCCOc1nc2c(NCc3nccs3)nc(Cl)nc2[nH]1` [(271)] was tested, and the activation at 0.08 µM [1] was 62.2%, the activation at 0.8 µM [1] was 107% and the EC (maximum kinetin efficacy) [2, 3] was 0.29 µM. The Emax [2, 4] was 206%.

`OCCOc1nc2c(NCc3ccco3)nc(Cl)nc2[nH]1` [(275)] was tested, and the activation at 0.08 µM [1] was 37.2%, the activation at 0.8 µM [1] was 101% and the EC (maximum kinetin efficacy) [2, 3] was 0.75 µM. The Emax [2, 4] was 230%.

For `Clc1nc(NCc2ccco2)c2nn[nH]c2n1` [(285)], the activation at 0.08 µM [1] was 0.06%, the activation at 0.8 µM [1] was 1.46% and the EC (maximum kinetin efficacy) [2, 3] was 6.78 µM. The Emax [2, 4] was 115%.

`FC(F)(F)COc1nc2c(NCc3nccs3)nc(Cl)nc2[nH]1` [(302)] was tested, and the activation at 0.08 µM [1] was 23.3%, the activation at 0.8 µM [1] was 90.8% and the EC (maximum kinetin efficacy) [2, 3] was 1.42 µM. The Emax [2, 4] was 176%.

For `COCCOc1nc2c(NCc3ccncn3)nc(Cl)nc2[nH]1` [(319)], the activation at 0.08 µM [1] was 14.2%, the activation at 0.8 µM [1] was 77.8% and the EC (maximum kinetin efficacy) [2, 3] was 1.56 µM. The Emax [2, 4] was 204%.

Compound `CC(C)(COc1nc2c(NCc3nccs3)nc(Cl)nc2[nH]1)OCc1ccccc1` [(400)] has an Emax [2, 4] of 11.4%.

`Clc1nc(NCc2nccs2)c2nc(OCCOc3ccccc3)[nH]c2n1` [(401)] showed an Emax [2, 4] of 41.2%.

For `O=C1CCCN1CCOc1nc2c(NCc3nccs3)nc(Cl)nc2[nH]1` [(402)], the Emax [2, 4] was 21%.

`CN(Cc1ccco1)c1ncnc2[nH]cnc12` [(403)] was tested, and the Emax [2, 4] was 39%.

With `c1cc(CNc2ncnc3[nH]cnc23)ccn1` [(404)] the Emax [2, 4] was 51%.

`c1nc(NCc2cnn[nH]2)c2nc[nH]c2n1` [(406)] gave an Emax [2, 4] of 20%.

For `C[C@@H](Nc1ncnc2[nH]cnc12)c1ccco1` [(411)], the Emax [2, 4] was 55%.

In the case of `Clc1cccc(CNc2ncnc3[nH]cnc23)c1` [(415)], the Emax [2, 4] is reported as 10.9%.

`Clc1ccccc1CNc1[nH]cnc2ncnc1-2` [(426)] gave an Emax [2, 4] of 59%.

`c1csc(CNc2[nH]cnc3ncnc2-3)c1` [(438)] was tested, and the Emax [2, 4] was 44%.

For `COc1ccc(C(=O)Nc2ncnc3[nH]cnc23)cc1` [(441)], the Emax [2, 4] was 42.8%.

`Fc1ccc(CCNc2ncnc3[nH]cnc23)cc1` [(442)] showed an Emax [2, 4] of 58.6%.

`Clc1nc(NCc2cccs2)c2[nH]cnc2n1` [(456)] gave an Emax [2, 4] of 52.3%.

Compound `Clc1nc(NCc2ccco2)c2[nH]cnc2n1` [(458)] has an Emax [2, 4] of 73.1%.

For `OC[C@H]1O[C@@H](n2cnc3c(NCc4ccco4)ncnc32)[C@H](O)[C@@H]1O` [(463)], the Emax [2, 4] was 90%.

`c1nc(NCc2ccoc2)c2nc[nH]c2n1` [(465)] showed an Emax ([2]; max efficacy, value marked (RT-PCR), footnote a: Firefly inhibitor, read-out: Emax (%) (RT-PCR)) of 26.3%.

For `Clc1nc2c(c(NCc3ccco3)n1)CCC2` [(466)], the EC (maximum kinetin efficacy) [2, 3] was 3.66 µM and the Emax [2, 4] was 221%.

`CC(=O)N1CC(Oc2nc3c(NCc4nccs4)nc(Cl)nc3[nH]2)C1` [(469)] was tested, and the Emax [2, 4] was 13.3%.

In the case of `Cn1c(=O)[nH]c2nc(Cl)nc(NCc3nccs3)c21` [(470)], the Emax [2, 4] is reported as 76.8%.

Compound `CC(C)(C)OC(=O)N1CC(COc2nc3c(NCc4nccs4)nc(Cl)nc3[nH]2)C1` [(471)] has an EC (maximum kinetin efficacy) [2, 3] of 1.63 µM and an Emax [2, 4] of 149%.

Compound `Clc1nc(NCc2ccco2)c2nc(OC[C@@H]3CCOC3)[nH]c2n1` [(472)] has an EC (maximum kinetin efficacy) [2, 3] of 1.16 µM and an Emax [2, 4] of 151%.

For `Clc1nc(NCc2nccs2)c2nc(OC[C@@H]3CCOC3)[nH]c2n1` [(473)], the EC (maximum kinetin efficacy) [2, 3] was 2.1 µM and the Emax [2, 4] was 130%.

`Clc1nc(NCc2ccco2)c2nc(OCC#Cc3ccccc3)[nH]c2n1` [(474)] gave an Emax [2, 4] of 24.9%.

Compound `Clc1nc(NCc2nccs2)c2nc(OCC#Cc3ccccc3)[nH]c2n1` [(476)] has an Emax [2, 4] of 25.5%.

Compound `CC(C)COc1nc2c(NCc3ccco3)nc(Cl)nc2[nH]1` [(477)] has an EC (maximum kinetin efficacy) [2, 3] of 2.28 µM and an Emax [2, 4] of 108%.

Work on `CC(C)(C)COc1nc2c(NCc3ccco3)nc(Cl)nc2[nH]1` [(478)] yielded an Emax [2, 4] of 84.1%.

`CC#CCOc1nc2c(NCc3nccs3)nc(Cl)nc2[nH]1` [(479)] gave an EC (maximum kinetin efficacy) [2, 3] of 3.23 µM and an Emax [2, 4] of 144%.

`Clc1nc(NCc2ccco2)c2nc(OCCOc3ccccc3)[nH]c2n1` [(481)] showed an EC (maximum kinetin efficacy) [2, 3] of 4.14 µM and an Emax [2, 4] of 93.4%.

Work on `CC(C)(C)OCCOc1nc2c(NCc3nccs3)nc(Cl)nc2[nH]1` [(482)] yielded an EC (maximum kinetin efficacy) [2, 3] of 11.1 µM and an Emax [2, 4] of 99.1%.

For `Clc1nc(NCc2nccs2)c2nc(OCc3ccccc3)[nH]c2n1` [(483)], the EC (maximum kinetin efficacy) [2, 3] was 1.26 µM and the Emax [2, 4] was 138%.

In the case of `CC#CCOc1nc2c(NCc3ccco3)nc(Cl)nc2[nH]1` [(486)], the EC (maximum kinetin efficacy) [2, 3] is reported as 2.57 µM and the Emax [2, 4] is reported as 150%.

Compound `Fc1cc(CNc2nc(Cl)nc3[nH]ccc23)ccn1` [(487)] has an EC (maximum kinetin efficacy) [2, 3] of 6.1 µM and an Emax [2, 4] of 114%.

In the case of `FC1(F)CC(COc2nc3c(NCc4cscn4)nc(Cl)nc3[nH]2)C1` [(488)], the EC (maximum kinetin efficacy) [2, 3] is reported as 1.02 µM and the Emax [2, 4] is reported as 206%.

Work on `Clc1nc(NCc2ccco2)c2nc(OCCC3CC3)[nH]c2n1` [(489)] yielded an EC (maximum kinetin efficacy) [2, 3] of 1.21 µM and an Emax [2, 4] of 131%.

Work on `Clc1nc(NCc2ccco2)c2nc(OCc3ccccc3)[nH]c2n1` [(490)] yielded an EC (maximum kinetin efficacy) [2, 3] of 0.62 µM and an Emax [2, 4] of 176%.

Work on `CC(C)COc1nc2c(NCc3nccs3)nc(Cl)nc2[nH]1` [(491)] yielded an EC (maximum kinetin efficacy) [2, 3] of 0.48 µM and an Emax [2, 4] of 155%.

`Clc1nc(NCc2ccco2)c2nc(OCCc3ccccc3)[nH]c2n1` [(492)] gave an Emax [2, 4] of 54.5%.

`Clc1nc(NCc2cscn2)c2nc(OCC3CCO3)[nH]c2n1` (stereo not drawn) [(493)] showed an EC (maximum kinetin efficacy) [2, 3] of 3.05 µM and an Emax [2, 4] of 168%.

Work on `Fc1cccc(CNc2nc(Cl)nc3[nH]ccc23)n1` [(494)] yielded an Emax [2, 4] of 14.1%.

`Fc1cccnc1CNc1nc(Cl)nc2[nH]ccc12` [(495)] was tested, and the Emax [2, 4] was 13.9%.

`CC(F)(F)COc1nc2c(NCc3cscn3)nc(Cl)nc2[nH]1` [(496)] showed an EC (maximum kinetin efficacy) [2, 3] of 1.03 µM and an Emax [2, 4] of 233%.

With `Clc1nc(NCc2cscn2)c2nc(OC3COC3)[nH]c2n1` [(497)] the EC (maximum kinetin efficacy) [2, 3] was 5.56 µM and the Emax [2, 4] was 120%.

With `Clc1nc(NCc2csnn2)c2cc[nH]c2n1` [(498)] the Emax [2, 4] was 37.7%.

`FC(F)(F)CCOc1nc2c(NCc3cscn3)nc(Cl)nc2[nH]1` [(499)] gave an EC (maximum kinetin efficacy) [2, 3] of 1.67 µM and an Emax [2, 4] of 156%.

With `Clc1nc(NCc2nccs2)c2nc(OCc3ccccn3)[nH]c2n1` [(500)] the EC (maximum kinetin efficacy) [2, 3] was 3 µM and the Emax [2, 4] was 141%.

`Clc1nc(NCc2nncs2)c2cc[nH]c2n1` [(501)] gave an Emax [2, 4] of 18.1%.

`Clc1nc2c(c(NCc3nccs3)n1)COC2` [(502)] was tested, and the Emax [2, 4] was 28%.

For `Clc1nc2c(c(NCc3ccco3)n1)COC2` [(503)], the Emax [2, 4] was 27.2%.

Compound `COC(=O)COc1nc2c(NCc3nccs3)nc(Cl)nc2[nH]1` [(504)] has an Emax [2, 4] of 80%.

Work on `Clc1nc(NCc2nccs2)c2nc(OCc3ncco3)[nH]c2n1` [(505)] yielded an EC (maximum kinetin efficacy) [2, 3] of 8.07 µM and an Emax [2, 4] of 140%.

For `Clc1nc(NCc2nccs2)c2nc(OCc3cccnc3)[nH]c2n1` [(506)], the EC (maximum kinetin efficacy) [2, 3] was 1.14 µM and the Emax [2, 4] was 144%.

Work on `Clc1nc(NCc2nccs2)c2nc(OCc3ccncc3)[nH]c2n1` [(507)] yielded an EC (maximum kinetin efficacy) [2, 3] of 0.77 µM and an Emax [2, 4] of 167%.

In the case of `CC(C)(C)OC(=O)N1Cc2nc(Cl)nc(NCc3ccco3)c2C1` [(508)], the Emax [2, 4] is reported as 80%.

For `CC(C)(C)OC(=O)N1Cc2nc(Cl)nc(NCc3nccs3)c2C1` [(509)], the Emax [2, 4] was 40.8%.

In the case of `CC(=O)N1Cc2nc(Cl)nc(NCc3nccs3)c2C1` [(510)], the Emax [2, 4] is reported as 20%.

With `O=C(O)COc1nc2c(NCc3nccs3)nc(Cl)nc2[nH]1` [(511)] the Emax [2, 4] was 35.1%.

Compound `c1nc2nc[nH]c(NC3CCCCCC3)c-2n1` [(512)] has an Emax [2, 4] of 43.7%.
